Measurements published in publication PMC6910946, “Multiple roles of Bet v 1 ligands in allergen stabilization and modulation of endosomal protease activity” (Allergy, 2019).

What was measured:
[1] = molecular target: T1, recombinant rat cathepsin B (Rattus norvegicus, UniProt P00787); assay: Enzymatic activity assay, fluorogenic substrate Z-FR-AMC; format: biochemical; conditions: PPE1 5 µmol/L, 15 min (Figure 4A)
T1 construct: gift of Dr Lukas Mach
Protocol: (§1) To evaluate the influence of Bet_v_1 ligands on cathepsin S and legumain activities, 10 nmol/L of protease was incubated with 100 µmol/L of ligand (unless otherwise stated) and 50 µmol/L of fluorogenic substrate in digestion buffer (0.1 mol/L sodium acetate pH 5.0, 0.1 mol/L sodium chloride, 5 mmol/L EDTA, and 2 mmol/L DTT), as described in the Appendix [Link], [Link]. The effect of birch pollen extract (BPE) (20‐200 µg/mL) on the cathepsin S and legumain activities was assessed in parallel. The inhibitory effect of PPE1 was assessed by replacing DTT with 0.5 mmol/L TCEP. Activities of recombinant rat cathepsin B (provided by Dr Lukas Mach) and papain (Merck) at 10 nmol/L were assayed using Z‐FR‐AMC (Bachem) as a fluorogenic substrate.

papain = molecular target: T2, papain (Carica papaya, UniProt P00784); assay: as above; format: biochemical; conditions: PPE1 5 µmol/L, 15 min (Figure 4A)
T2 construct: purchased Merck
T2 sequence (P00784 134-345): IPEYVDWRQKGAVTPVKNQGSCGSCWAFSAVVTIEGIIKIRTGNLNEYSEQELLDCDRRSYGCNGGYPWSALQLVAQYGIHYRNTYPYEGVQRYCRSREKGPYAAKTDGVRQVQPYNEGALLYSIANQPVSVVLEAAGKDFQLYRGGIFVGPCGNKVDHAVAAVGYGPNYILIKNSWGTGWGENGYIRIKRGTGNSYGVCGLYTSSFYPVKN
Protocol: as §1

legumain = molecular target: T3, legumain (Homo sapiens, UniProt Q99538); assay: Enzymatic activity assay, fluorogenic substrate Z-AAN-AMC; format: biochemical; conditions: PPE1 5 µmol/L (Figure 4D)
T3 construct: made in house
T3 sequence (Q99538 18-433): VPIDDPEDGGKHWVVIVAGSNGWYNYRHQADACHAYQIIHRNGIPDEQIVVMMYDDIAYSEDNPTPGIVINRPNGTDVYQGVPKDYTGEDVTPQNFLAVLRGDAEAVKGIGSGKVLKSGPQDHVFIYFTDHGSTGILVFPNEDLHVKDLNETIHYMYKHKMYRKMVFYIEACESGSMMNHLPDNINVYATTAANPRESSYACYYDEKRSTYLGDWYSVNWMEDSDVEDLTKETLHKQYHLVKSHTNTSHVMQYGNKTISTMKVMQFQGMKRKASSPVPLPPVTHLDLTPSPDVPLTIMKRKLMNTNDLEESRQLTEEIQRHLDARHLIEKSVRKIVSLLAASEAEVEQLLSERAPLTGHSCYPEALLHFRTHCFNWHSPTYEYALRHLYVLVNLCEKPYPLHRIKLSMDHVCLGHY
Protocol: as §1
For the detection of cathepsin or legumain activities in the microsomal fraction, 8 µg of microsomal extract was incubated with 50 µM fluorogenic substrate with or without inhibitor in assay buffer (100 mM citrate pH 4.8 and 2 mM DTT). The enzymatic reactions were carried out in a 50 µL reaction volume in a 96-half-well black flat bottom assay plate (Corning Inc., Corning, NY, USA) at 37°C. The fluorescence signal was recorded using a Tecan Infinite-200 plate reader (Tecan, Männedorf, Switzerland) at an excitation wavelength of 380 nm and emission wavelength of 460 nm for 15 min of continuous measurement with a 30-s interval reading. […]

Bet_v_1 = molecular target: T4, Bet_v_1 (Betula pendula, UniProt P15494); assay: NMR spectroscopy (1H-15N HSQC) binding confirmation
T4 construct: made in house
T4 sequence (P15494 1-160): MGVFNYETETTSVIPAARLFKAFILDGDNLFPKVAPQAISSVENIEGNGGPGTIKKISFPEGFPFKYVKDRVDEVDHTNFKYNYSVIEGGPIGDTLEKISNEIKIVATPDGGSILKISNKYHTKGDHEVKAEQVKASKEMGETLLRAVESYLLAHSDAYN
From the text: Surface acoustic wave (SAW) technology and NMR spectroscopy were used to observe the interaction of Bet_v_1 with the selected compounds, including determination of the dissociation constant (K d). The influence of ligand binding on the secondary structure elements and the thermal stability of Bet_v_1 was monitored using circular dichroism (CD, JASCO J‐815 spectropolarimeter, Jasco) and Fourier transform infrared (FTIR) spectroscopy (Tensor II FTIR system, Bruker Optics Inc). A detailed description of these methods is available (Appendix [Link], [Link]).
To validate the interactions determined by SAW, we used NMR spectroscopy to test the specific binding of PPE1, LTA, LPS, and Kdo2 to Bet_v_1 (Table 1, Figure S2). […] The commercially available PPA1 was used as a substitute for PPE1 to identify the phytoprostane binding site(s).
The NMR data were acquired with either a 600 or 800 MHz Agilent DD2 spectrometer with a cryogenically cooled probe using the pulse sequence gNhsqc. Bet v 1 assignments were taken from.^2 The experiments were performed under the following conditions: LTA: 45 µM Bet v 1 and 300 µM LTA in PBS, 10% ^2H2O, 60 µM DSS; PPE1: 25 µM Bet v 1 and 2 µM PPE1 in PBS, 5% ^2H-(d6) DMSO, 10% ^2H2O, 60 µM DSS; PPA1: 100 µM Bet v 1 and 302 µM PPA1 (Cayman Chemical, MI, USA) in PBS, 8.7% ^2H-(d6) DMSO, 10% ^2H2O, 60 µM DSS; LPS: 100 µM Bet v 1 and 400 µM LPS in PBS pH 7.4, 10% ^2H2O, 60 µM DSS. Kdo2: 100 µM Bet v 1 and 422 µM Kdo2 in PBS pH 7.0, 10% ^2H2O, 8.6% ^2H-(d6) DMSO, 60 µM DSS.

cathepsin S = molecular target: T5, cathepsin S (Homo sapiens, UniProt P25774); assay: Enzymatic activity assay, fluorogenic substrate Z-VVR-AMC; format: biochemical
T5 construct: made in house
Protocol: as §1
For the detection of cathepsin or legumain activities in the microsomal fraction, 8 µg of microsomal extract was incubated with 50 µM fluorogenic substrate with or without inhibitor in assay buffer (100 mM citrate pH 4.8 and 2 mM DTT). The enzymatic reactions were carried out in a 50 µL reaction volume in a 96-half-well black flat bottom assay plate (Corning Inc., Corning, NY, USA) at 37°C. The fluorescence signal was recorded using a Tecan Infinite-200 plate reader (Tecan, Männedorf, Switzerland) at an excitation wavelength of 380 nm and emission wavelength of 460 nm for 15 min of continuous measurement with a 30-s interval reading. The fluorogenic substrates used for cathepsin S and legumain were Z-VVR-AMC and Z-AAN-AMC (Bachem, Bubendorf, Switzerland), respectively. The inhibitors used for cathepsin S and legumain were Z-FL-COCHO (Sigma-Aldrich, CA, USA) and Ac-YVAD-CMK (Bachem), respectively^11.

LPS‐stimulated human DCs = tested on: LPS‐stimulated human DCs; parameters: method as in PMID 19454659, PMID 17451798; conditions: cited from earlier work

T5 sequence (P25774 115-331): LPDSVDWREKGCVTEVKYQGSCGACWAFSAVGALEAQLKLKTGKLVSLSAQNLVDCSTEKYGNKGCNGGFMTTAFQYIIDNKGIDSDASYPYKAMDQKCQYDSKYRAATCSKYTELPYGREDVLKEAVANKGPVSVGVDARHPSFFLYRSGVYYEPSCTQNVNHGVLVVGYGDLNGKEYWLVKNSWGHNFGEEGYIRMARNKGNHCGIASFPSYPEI
T1 sequence (P00787 80-339): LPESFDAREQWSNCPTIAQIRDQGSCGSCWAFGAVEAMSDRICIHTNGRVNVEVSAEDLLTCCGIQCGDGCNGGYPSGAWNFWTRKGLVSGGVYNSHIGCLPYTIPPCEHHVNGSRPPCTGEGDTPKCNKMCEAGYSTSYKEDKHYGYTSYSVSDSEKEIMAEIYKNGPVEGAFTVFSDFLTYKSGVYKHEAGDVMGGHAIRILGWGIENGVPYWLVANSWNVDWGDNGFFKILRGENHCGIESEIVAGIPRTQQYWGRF

CCC1C(=O)CC(O)C1/C=C/C(O)CCCCCCCC(=O)O (stereo not drawn) [PPE1, E1 phytoprostanes]
rat cathepsin B fluorogenic activity [1]: inhibits | papain fluorogenic activity (papain): inhibits | legumain activity in the presence of DTT and TCEP (legumain): no inhibitory effect | NMR (binding confirmation, K d) (Bet_v_1; 15N-labeled Bet v 1, direct measurement of Kd prevented by intermediate exchange): low to sub‐µmol/L | specific binding to Bet v 1 (1H-15N HSQC spectra) (Bet_v_1; absence vs presence of compound): specifically binds | cathepsin S fluorogenic activity (cathepsin S; 10 nmol/L protease, 100 µmol/L ligand, 50 µmol/L substrate, pH 5.0, 2 mmol/L DTT (Figure 3A)): specifically inhibited | cathepsin S fluorogenic activity (cathepsin S; PPE1 5 µmol/L, 15 min (Figure 4A)): inhibits | cathepsin S activity in the presence of TCEP (cathepsin S; PPE1 5 µmol/L, 0.5 mmol/L TCEP instead of DTT (Figure 4D)): completely abolished | production of IL‐12p70 (LPS‐stimulated human DCs): inhibits the production of IL‐12p70
